# Several values for one entry are separate records, joined by “and”; a condition that tells them apart may be missing. Equal values may be shown once.
# Test system: T2 soybean events expressing the indicated Amaranthus PPO2 variant transgene
# Experiment: Soybean PPO inhibitor tolerance testing, injury score (Table C)
# Type: in vivo, Soybean cv Jake
# Details: V2 stage, 3 days after treatment, individual plants
# Description: Soybean cv Jake is transformed as previously described by Siminszky et al., Phytochem Rev. 5:445-458 (2006). After regeneration, transformants are transplanted to soil in small pots, placed in growth chambers (16 hr day/8 hr night; 25° C. day/23° C. night; 65% relative humidity; 130-150 microE m-2 s-1) and subsequently tested for the presence of the T-DNA via Taqman analysis. After a few weeks, healthy, transgenic positive, single copy events are transplanted to larger pots and allowed to grow in the growth chamber. An optimal shoot for cutting is about 3-4 inches tall, with at least two nodes present. Each cutting is taken from the original transformant (mother plant) and dipped into rooting hormone powder (indole-3-butyric acid, IBA). The cutting is then placed in oasis wedges inside a bio-dome. The mother plant is taken to maturity in the greenhouse and harvested for seed. Wild type cuttings are also taken simultaneously to serve as negative controls. The cuttings are kept in the bio-dome for 5-7 days and then transplanted to 3 inch pots and then acclimated in the growth chamber for two more days. Subsequently, the cuttings are transferred to the greenhouse, acclimated for approximately 4 days prior to spray. […] g ai/ha saflufenacil plus 1% MSO and/or 25-200 g ai/ha 1,5-dimethyl-6-thioxo-3-(2,2,7-trifluoro-3-oxo-4-(prop-2-ynyl)-3,4-dihydro-2H-benzo[b][1,4]oxazin-6-yl)-1,3,5-triazinane-2,4-dione (CAS 1258836-72-4) plus 1% MSO. Other PPO inhibiting herbicides are also tested in a similar fashion for confirming cross resistance: flumioxazin, butafenacil, acifluorfen, lactofen, bifenox, sulfentrazone, methyl 2-[2-chloro-5-[3-chloro-5-(trifluoromethyl)-2-pyridyl]-4-fluoro-phenoxy]-2-methoxy-acetate, ethyl 2-[2-chloro-5-[3-chloro-5-(trifluoromethyl)-2-pyridyl]-4-fluoro-phenoxy]-2-methoxy-acetate, prop-2-ynyl 2-[2-chloro-5-[3-chloro-5-(trifluoromethyl)-2-pyridyl]-4-fluoro-phenoxy]-2-methoxy-acetate and photosynthesis inhibitor diuron as negative control. […]
# The following gives a definition of the injury scores measured above: […]
structure (smiles),measurement,setting,value
COC(=O)C(OC)Oc1cc(-c2ncc(C(F)(F)F)cc2Cl)c(F)cc1Cl (stereo not shown) [methyl 2-[2-chloro-5-[3-chloro-5-(trifluoromethyl)-2-pyridyl]-4-fluoro-phenoxy]-2-methoxy-acetate],injury on a 0-9 point scale,"soybean T2, transgene L397E_F420M, 25 g ai/ha + 1% v/v MSO",1
same,injury on a 0-9 point scale,"soybean T2, transgene L397E_F420M, 50 g ai/ha + 1% v/v MSO",3 and 4
same,injury on a 0-9 point scale,"soybean T2, transgene L397E_F420M, 100 g ai/ha + 1% v/v MSO",3 and 4 and 9
same,injury on a 0-9 point scale,"soybean T2, transgene L397E_F420M, 200 g ai/ha + 1% v/v MSO",3 (2×) and 4
same,injury on a 0-9 point scale,"soybean T2, transgene L397Q_F420M, 25 g ai/ha + 1% v/v MSO",1 and 0 and 9
same,injury on a 0-9 point scale,"soybean T2, transgene L397Q_F420M, 50 g ai/ha + 1% v/v MSO",9 and 1
same,injury on a 0-9 point scale,"soybean T2, transgene L397Q_F420M, 100 g ai/ha + 1% v/v MSO",3
same,injury on a 0-9 point scale,"soybean T2, transgene L397Q_F420M, 200 g ai/ha + 1% v/v MSO",3 and 9 and 4
same,injury on a 0-9 point scale,"soybean T2, transgene R128A_F420I event 1, 25 g ai/ha + 1% v/v MSO",0
same,injury on a 0-9 point scale,"soybean T2, transgene R128A_F420I event 1, 50 g ai/ha + 1% v/v MSO",1 and 2 (2×)
same,injury on a 0-9 point scale,"soybean T2, transgene R128A_F420I event 1, 100 g ai/ha + 1% v/v MSO",2 (2×) and 3
same,injury on a 0-9 point scale,"soybean T2, transgene R128A_F420I event 1, 200 g ai/ha + 1% v/v MSO",4 (2×) and 3
same,injury on a 0-9 point scale,"soybean T2, transgene R128A_F420I event 2, 25 g ai/ha + 1% v/v MSO",0 and 9
same,injury on a 0-9 point scale,"soybean T2, transgene R128A_F420I event 2, 50 g ai/ha + 1% v/v MSO",3 (2×) and 4
same,injury on a 0-9 point scale,"soybean T2, transgene R128A_F420I event 2, 100 g ai/ha + 1% v/v MSO",1 and 3
same,injury on a 0-9 point scale,"soybean T2, transgene R128A_F420I event 2, 200 g ai/ha + 1% v/v MSO",5 (2×) and 4
same,injury on a 0-9 point scale,"soybean T2, transgene R128A_F420I event 3, 25 g ai/ha + 1% v/v MSO",0
same,injury on a 0-9 point scale,"soybean T2, transgene R128A_F420I event 3, 50 g ai/ha + 1% v/v MSO",1 and 2 and 0
same,injury on a 0-9 point scale,"soybean T2, transgene R128A_F420I event 3, 100 g ai/ha + 1% v/v MSO",1 and 3
same,injury on a 0-9 point scale,"soybean T2, transgene R128A_F420I event 3, 200 g ai/ha + 1% v/v MSO",4
same,injury on a 0-9 point scale,"soybean T2, transgene R128A_F420V, 25 g ai/ha + 1% v/v MSO",2 and 1
same,injury on a 0-9 point scale,"soybean T2, transgene R128A_F420V, 50 g ai/ha + 1% v/v MSO",4 and 9
same,injury on a 0-9 point scale,"soybean T2, transgene R128A_F420V, 100 g ai/ha + 1% v/v MSO",4
same,injury on a 0-9 point scale,"soybean T2, transgene R128A_F420V, 200 g ai/ha + 1% v/v MSO",9 and 4 and 5
same,injury on a 0-9 point scale,"soybean, Non transgenic, 25 g ai/ha + 1% v/v MSO",9 (2×) and 8
same,injury on a 0-9 point scale,"soybean, Non transgenic, 50 g ai/ha + 1% v/v MSO",9
same,injury on a 0-9 point scale,"soybean, Non transgenic, 100 g ai/ha + 1% v/v MSO",9
same,injury on a 0-9 point scale,"soybean, Non transgenic, 200 g ai/ha + 1% v/v MSO",9 (2×) and 8
